# Results published in patent US12077503B2, “Substituted cyclic amides and their use as herbicides” (FMC CORPORATION, priority 2015, dated 2024).
# Read-outs that look alike come from different tables or passages of the source.
# Legend:
# Format in all cases: in vivo
# [1] = system: giant foxtail (Setaria faberii); assay: Test A postemergence; conditions: Setaria faberi, post-emergence, 240 h; for pest or weed control at 125 g/ha: 125 g ai/ha
# How it was run: (§1)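 Seeds sprayed preemergence with a directed soil spray, or plants at 2 to 10 cm height and one- to two-leaf stage sprayed postemergence, with test chemicals in a non-phytotoxic solvent mixture containing surfactant, in loam soil–sand blend. Injury rated visually against untreated controls after about 10 d in greenhouse, 0 (no effect) to 100 (complete control).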
# [2] = system: ryegrass, Italian (Italian ryegrass, Lolium multiflorum); assay: Test A postemergence; conditions: Lolium multiflorum, post-emergence, 240 h; for pest or weed control at 125 g/ha: 125 g ai/ha
# How it was run: as §1
# [3] = system: blackgrass (Alopecurus myosuroides); assay: Test A postemergence; conditions: Alopecurus myosuroides, post-emergence, 240 h; for pest or weed control at 125 g/ha: 125 g ai/ha
# How it was run: as §1
# [4] = system: corn (Zea mays); assay: Test A postemergence; conditions: Zea mays, post-emergence, 240 h
# How it was run: as §1
# [5] = system: Kochia (Kochia scoparia); assay: Test A postemergence; conditions: Bassia scoparia, post-emergence, 240 h; for pest or weed control at 125 g/ha: 125 g ai/ha
# How it was run: as §1
# [6] = system: ragweed (common ragweed, Ambrosia elatior); assay: Test A postemergence; conditions: Ambrosia artemisiifolia, post-emergence, 240 h; for pest or weed control at 125 g/ha: 125 g ai/ha
# How it was run: as §1
# [7] = system: barnyardgrass (Echinochloa crus-galli); assay: Test A postemergence; conditions: Echinochloa crus-galli, post-emergence, 240 h; for pest or weed control at 125 g/ha: 125 g ai/ha
# How it was run: as §1
# [8] = system: pigweed (Amaranthus retroflexus); assay: Test A postemergence; conditions: Amaranthus retroflexus, post-emergence, 240 h; for pest or weed control at 125 g/ha: 125 g ai/ha
# How it was run: as §1
# [9] = system: wheat (Triticum aestivum); assay: Test A postemergence; conditions: Triticum aestivum, post-emergence, 240 h; for plant injury at 125 g/ha: 125 g ai/ha
# How it was run: as §1
# [10] = system: Galium (catchweed bedstraw, Galium aparine); assay: Test A postemergence; conditions: Galium, post-emergence, 240 h; for pest or weed control at 125 g/ha: 125 g ai/ha
# How it was run: as §1
# [11] = system: ducksalad (Heteranthera limosa); assay: Test B flooded paddy test; conditions: Heteranthera limosa, Flood, 250 g ai/ha, read-out: Ducksalad plant response rating
# How it was run: (§2)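 Greenhouse paddy pots with 2-leaf stage plants received compound by direct addition to floodwater 3 cm deep, kept at that level. Scored visually at 13–15 d versus controls (0 no effect; 100 complete control).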
# [12] = system: barnyardgrass (Echinochloa crus-galli); assay: Test B flooded paddy test; conditions: Echinochloa crus-galli, Flood, 250 g ai/ha, read-out: Barnyardgrass plant response rating
# How it was run: as §2
# [13] = system: sedge, umbrella (small-flower umbrella sedge, Cyperus difformis); assay: Test B flooded paddy test; conditions: Cyperus difformis, Flood, 250 g ai/ha, read-out: Sedge, Umbrella plant response rating
# How it was run: as §2
# [14] = system: rice (Oryra sativa); assay: Test B flooded paddy test; conditions: Oryza sativa, Flood, 250 g ai/ha, read-out: Rice plant response rating
# How it was run: as §2
# [15] = system: pigweed (Amaranthus retroflexus); assay: Test A preemergence; conditions: Amaranthus retroflexus, pre-emergence, 240 h; for pest or weed control at 125 g/ha: 125 g ai/ha; for pest or weed control at 500 g/ha: 500 g ai/ha
# [16] = scale of 0 to 100 where 0 is no effect and 100 is complete control
# [17] = 0 to 100 scale where 0 is no effect and 100 is complete control
compound,measurement,setting,value
CN1C[C@H](c2cc(F)c(F)c(F)c2)[C@@H](C(=O)Nc2cccc(F)c2F)C1=O [Compound 879],pest or weed control at 125 g/ha,"[1]; postemergence, visual injury rating after approximately 10 d, read-out: Foxtail, Giant plant response rating (0 to 100 scale, 0 no effect, 100 complete control)",80%
same,pest or weed control at 125 g/ha,"[2]; postemergence, visual injury rating after approximately 10 d, read-out: Ryegrass, Italian plant response rating (0 to 100 scale, 0 no effect, 100 complete control)",70%
same,pest or weed control at 125 g/ha,"[3]; postemergence, visual injury rating after approximately 10 d, read-out: Blackgrass plant response rating (0 to 100 scale, 0 no effect, 100 complete control)",70%
same,plant injury at 125 g/ha,"[4]; 125 g ai/ha, postemergence, visual injury rating after approximately 10 d, read-out: Corn plant response rating (0 to 100 scale, 0 no effect, 100 complete control)",60%
same,pest or weed control at 125 g/ha,"[5]; postemergence, visual injury rating after approximately 10 d, read-out: Kochia plant response rating (0 to 100 scale, 0 no effect, 100 complete control)",60%
same,pest or weed control at 125 g/ha,"[6]; postemergence, visual injury rating after approximately 10 d, read-out: Ragweed plant response rating (0 to 100 scale, 0 no effect, 100 complete control)",20%
same,pest or weed control at 125 g/ha,"[7]; postemergence, visual injury rating after approximately 10 d, read-out: Barnyardgrass plant response rating (0 to 100 scale, 0 no effect, 100 complete control)",100%
same,pest or weed control at 125 g/ha,"[8]; postemergence, visual injury rating after approximately 10 d, read-out: Pigweed plant response rating (0 to 100 scale, 0 no effect, 100 complete control)",20%
same,plant injury at 125 g/ha,"[9]; postemergence, visual injury rating after approximately 10 d, read-out: Wheat plant response rating (0 to 100 scale, 0 no effect, 100 complete control)",70%
same,pest or weed control at 125 g/ha,"[10]; postemergence, visual injury rating after approximately 10 d, read-out: Galium plant response rating (0 to 100 scale, 0 no effect, 100 complete control)",50%
same,pest or weed control at 250 g/ha,[11]; [16],100%
same,pest or weed control at 250 g/ha,[12]; [16],90%
same,pest or weed control at 250 g/ha,[13]; [16],50%
same,pest or weed control at 250 g/ha,[14]; [16],0%
same,pest or weed control at 125 g/ha,"[15]; preemergence, 0 to 100 scale where 0 is no effect and 100 is complete control, read-out: Pigweed plant response rating",70%
same,pest or weed control at 500 g/ha,"[15]; Preemergence, visual injury vs untreated controls after approximately 10 d, read-out: Pigweed plant response rating (0 to 100 scale where 0 is no effect and 100 is complete control)",80%
Cc1cc([C@H]2CN(C)C(=O)[C@@H]2C(=O)Nc2cccc(F)c2F)cc(C)c1Br [Compound 1024],pest or weed control at 125 g/ha,"[1]; Postemergence, visual injury after approximately 10 d, 0 to 100 scale where 0 is no effect and 100 is complete control, read-out: Plant response rating, Foxtail, Giant",70%
same,pest or weed control at 500 g/ha,"[1]; 500 g ai/ha, postemergence, visual injury, 0 to 100 scale (0 no effect, 100 complete control), approx. 10 d, read-out: Plant response rating, Foxtail, Giant",90%
same,pest or weed control at 125 g/ha,"[2]; Postemergence, visual injury after approximately 10 d, 0 to 100 scale where 0 is no effect and 100 is complete control, read-out: Plant response rating, Ryegrass, Italian",30%
same,pest or weed control at 500 g/ha,"[2]; 500 g ai/ha, postemergence, visual injury, 0 to 100 scale (0 no effect, 100 complete control), approx. 10 d, read-out: Plant response rating, Ryegrass, Italian",30%
same,pest or weed control at 125 g/ha,"[3]; Postemergence, visual injury after approximately 10 d, 0 to 100 scale where 0 is no effect and 100 is complete control, read-out: Plant response rating, Blackgrass",0%
same,pest or weed control at 500 g/ha,"[3]; 500 g ai/ha, postemergence, visual injury, 0 to 100 scale (0 no effect, 100 complete control), approx. 10 d, read-out: Plant response rating, Blackgrass",20%
same,"Corn plant response rating (crop injury, 0 = no effect, 100 = complete kill) at 125 g/ha","[4]; 125 g ai/ha, Postemergence, visual injury after approximately 10 d, 0 to 100 scale where 0 is no effect and 100 is complete control",70%
same,"Corn plant response rating (crop injury, 0 = no effect, 100 = complete kill) at 500 g/ha","[4]; 500 g ai/ha, postemergence, visual injury, 0 to 100 scale (0 no effect, 100 complete control), approx. 10 d",70%
same,pest or weed control at 125 g/ha,"[5]; Postemergence, visual injury after approximately 10 d, 0 to 100 scale where 0 is no effect and 100 is complete control, read-out: Plant response rating, Kochia",50%
same,pest or weed control at 500 g/ha,"[5]; 500 g ai/ha, postemergence, visual injury, 0 to 100 scale (0 no effect, 100 complete control), approx. 10 d, read-out: Plant response rating, Kochia",60%
same,pest or weed control at 125 g/ha,"[6]; Postemergence, visual injury after approximately 10 d, 0 to 100 scale where 0 is no effect and 100 is complete control, read-out: Plant response rating, Ragweed",0%
same,pest or weed control at 500 g/ha,"[6]; 500 g ai/ha, postemergence, visual injury, 0 to 100 scale (0 no effect, 100 complete control), approx. 10 d, read-out: Plant response rating, Ragweed",0%
same,pest or weed control at 125 g/ha,"[7]; Postemergence, visual injury after approximately 10 d, 0 to 100 scale where 0 is no effect and 100 is complete control, read-out: Plant response rating, Barnyardgrass",90%
same,pest or weed control at 500 g/ha,"[7]; 500 g ai/ha, postemergence, visual injury, 0 to 100 scale (0 no effect, 100 complete control), approx. 10 d, read-out: Plant response rating, Barnyardgrass",90%
same,pest or weed control at 125 g/ha,"[8]; Postemergence, visual injury after approximately 10 d, 0 to 100 scale where 0 is no effect and 100 is complete control, read-out: Plant response rating, Pigweed",30%
same,pest or weed control at 500 g/ha,"[8]; 500 g ai/ha, postemergence, visual injury, 0 to 100 scale (0 no effect, 100 complete control), approx. 10 d, read-out: Plant response rating, Pigweed",50%
same,plant injury at 125 g/ha,"[9]; Postemergence, visual injury after approximately 10 d, 0 to 100 scale where 0 is no effect and 100 is complete control, read-out: Plant response rating, Wheat",0%
same,plant injury at 500 g/ha,"[9]; 500 g ai/ha, postemergence, visual injury, 0 to 100 scale (0 no effect, 100 complete control), approx. 10 d, read-out: Plant response rating, Wheat",30%
same,pest or weed control at 125 g/ha,"[10]; Postemergence, visual injury after approximately 10 d, 0 to 100 scale where 0 is no effect and 100 is complete control, read-out: Plant response rating, Galium",60%
same,pest or weed control at 500 g/ha,"[10]; 500 g ai/ha, postemergence, visual injury, 0 to 100 scale (0 no effect, 100 complete control), approx. 10 d, read-out: Plant response rating, Galium",60%
same,pest or weed control at 250 g/ha,[11]; [17],70%
same,pest or weed control at 250 g/ha,[12]; [17],40%
same,pest or weed control at 250 g/ha,[13]; [17],0%
same,pest or weed control at 250 g/ha,[14]; [17],0%
same,pest or weed control at 125 g/ha,"[15]; Preemergence, visual injury rating after approximately 10 d, read-out: Pigweed plant response rating (0 to 100 scale, 0 is no effect, 100 is complete control)",30%
same,pest or weed control at 500 g/ha,"[15]; preemergence, visual injury rating about 10 d after treatment, 0 to 100 scale (0 no effect, 100 complete control), read-out: Pigweed plant response rating",50%
